Source: patent publication US20220296108A1, “METHOD AND APPARATUS FOR QUANTITATION OF MICROCIRCULATION” (Seoul National University Hospital, priority 2019, published 2022)

How the values were obtained:
[1] = test system: CLP mouse model; test: Histological analysis of the number of sequestered neutrophils (Ly6G+ cells) in Mac-1-inhibited CLP mouse model; assay type: in vivo; conditions: vs CLP mouse model (Fc) and normal group (Sham), FIG. 28B
Description: Specifically, lung tissues were harvested after intravital imaging of the mouse models. The tissues were perfused and fixed with 4% paraformaldehyde and then further fixed overnight in 4% paraformaldehyde. For H&E (hematoxylin and eosin) staining, the fixed tissues were processed using standard procedures, embedded in paraffin and then sliced into 4-μm sections, followed by conventional H&E staining.

[2] = test system: CLP mouse model; test: Arterial blood gas analysis in CLP mouse model before and after abciximab; assay type: in vivo; conditions: post-Abc CLP mouse vs normal group (Sham)
Description: In addition, arterial blood gas analysis was performed to assess the oxygen partial pressure and carbon dioxide partial pressure in the arterial blood of the pre-Abc mouse model and the post-Abc mouse model. Specifically, a 1-mL syringe with a 22-gauge needle was coated with heparin and introduced into the left ventricle of the heart of the normal mouse model (Sham) (n=8), pre-Abc mouse model (Fc) (n=10) and post-Abc mouse model (Abc) (n=6). Then, about 200 μL of blood was sampled and analyzed with an i-STAT handheld blood analyzer (G3 cartridge, Abbott Point of Care Inc.). The mice were euthanized in a CO2 chamber right after the blood sampling.

[3] = test system: CLP mouse model; test: Functional capillary ratio (FCR) by intravital lung imaging in Mac-1-inhibited CLP mouse model
Description: CLP model was performed by a single experienced operator according to a previously described method. Specifically, 75% of the cecum of the LysM^GFP/+ mouse was ligated with 6-0 black silk and single puncture with a dual hole in the distal cecum was made with a 21-gauge needle. After the puncture, the cecum was gently squeezed to confirm the patency of the puncture hole for extrusion of feces. The cecum was replaced to the abdominal cavity and the abdominal incision was closed with 4-0 black silk. A normal group (sham group) underwent the same surgical procedure except the cecal ligation and puncture. […]
Specifically, three continuous laser modules (488 nm (MLD488, Cobolt), 561 nm (Jive, Cobolt) and 640 nm (MLD640, Cobolt)) were utilized as excitation light sources for multi-color fluorescence imaging. […] The fluorescence signals emitted from the lung of the mouse model on a XYZ translational 3D stage (3DMS, Sutter Instrument) were epi-detected by the objective lenses. De-scanned three-color fluorescence signals were spectrally divided by diachronic beam splitters (DBS4; FF560-Di01, DBS5; FF649-Di01, Semrock) and then detected by a photomultiplier (PMT; R9110, Hamamatsu) through bandpass filters (BPF1; FF02-525/50, BPF2; FF01-600/37, BPF3; FF01-685/40, Semrock). […]

abciximab
Number of sequestered neutrophils (Ly6G+ cells) [1]: recovered to a level comparable to that of the normal group | Oxygen partial pressure in arterial blood ([2]; FIG. 31A): comparable to that of the normal group | Carbon dioxide partial pressure in arterial blood ([2]; FIG. 31B): comparable to that of the normal group | Functional capillary ratio (FCR) increase after vs before abciximab administration ([3]; CLP mouse imaged 6 hours after CLP (pre-Abc), then 30 minutes after abciximab (post-Abc)): ≥ 2 times | Dead space and functional capillaries in pulmonary microcirculation imaging ([3]; CLP mouse, vs CLP mouse model (Fc), FIG. 27): dead space was decreased
